The record followed here is publication PMC4978154, “Phase I metabolites of mephedrone display biological activity as substrates at monoamine transporters” (British Journal of Pharmacology, 2016).

The target in this test is T1, hSERT (Homo sapiens, UniProt P31645).
T1 construct: yellow fluorescent protein (YFP); expressed in transfected cells
Briefly: Transporter release (superfusion) assay in HEK293 cells expressing hSERT. It is filed as cell-based. Particulars: test drug 10 μM, monensin 10 μM; post hoc Bonferroni. Here is the method:
The generation of HEK293 cells stably expressing the human isoforms of DAT (hDAT) and NET (hNET) was carried out as described previously (Scholze et al., 2002). For SERT, the human isoform (hSERT) was cloned in frame with yellow fluorescent protein (Schmid et al., 2001). The generation of a stable cell line was performed as described by Hilber and colleagues (Hilber et al., 2005). HEK293 cells were maintained in humidified atmosphere (5% CO2, 37°C) in DMEM, supplemented with 10% heat‐inactivated FBS and penicillin (100 u 100 mL^−1) and streptomycin (100 μg 100 mL^−1). Selection pressure was maintained by adding geneticin (50 μg·mL^−1) to the cell culture media.
Superfusion experiments were performed as described previously (Scholze et al., 2002). […] Finally, the cells were lysed in 1% SDS to determine the total radioactivity. Radioactivity per fraction was assessed by a liquid scintillation counter and expressed as fractional release, that is, the percentage of released ^3H in relation to total ^3H present at the beginning of the fraction (Sitte et al., 2000). For analysis, release was expressed as AUC.
Calculations were performed using Microsoft Excel® 2010 (Microsoft Corporation, Redmond, WA, USA) and GRAPHPAD PRISM 5.0. […] IC50 values for uptake inhibition and EC50 values for release were determined by nonlinear regression fits. […]

T1 sequence (P31645 whole entry): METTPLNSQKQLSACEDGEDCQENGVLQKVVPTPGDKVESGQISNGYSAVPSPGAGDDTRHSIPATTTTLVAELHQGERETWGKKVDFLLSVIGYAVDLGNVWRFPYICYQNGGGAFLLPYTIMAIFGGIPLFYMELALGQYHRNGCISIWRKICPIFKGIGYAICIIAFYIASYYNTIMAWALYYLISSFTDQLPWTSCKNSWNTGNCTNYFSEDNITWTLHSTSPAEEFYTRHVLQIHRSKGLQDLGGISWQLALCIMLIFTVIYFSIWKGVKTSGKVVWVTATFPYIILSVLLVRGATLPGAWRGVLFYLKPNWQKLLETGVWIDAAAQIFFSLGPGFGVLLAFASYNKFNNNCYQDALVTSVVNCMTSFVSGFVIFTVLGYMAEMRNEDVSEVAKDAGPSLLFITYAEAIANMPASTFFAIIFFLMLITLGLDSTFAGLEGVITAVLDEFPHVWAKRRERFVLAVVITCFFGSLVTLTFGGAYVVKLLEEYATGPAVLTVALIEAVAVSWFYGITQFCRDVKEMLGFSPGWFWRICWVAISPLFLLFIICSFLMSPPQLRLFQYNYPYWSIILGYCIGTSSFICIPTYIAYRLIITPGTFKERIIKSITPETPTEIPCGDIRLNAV

As to `CNC(C)C(=O)c1ccc(C)cc1.Cl` (stereo not shown) [Mephedrone, 2‐Methylamino‐1‐(p‐tolyl)propan‐1‐one hydrochloride], the “enhancement by monensin of drug-evoked [3H]-5-HT release at hSERT (AUC)” value is on record as “significant”.
